Laboratory results from PMC6138237, “Machine intelligence decrypts β-lapachone as an allosteric 5-lipoxygenase inhibitor” (Chemical Science, 2018).
Like-named read-outs stand apart in the source and are kept apart here. One block for each molecule: values may come before it.

Assays:
15-LO-2 = molecular target: T1, 15-LO-2 (Homo sapiens, UniProt O15296); experiment: 15-LO-2 inhibition assay, Cerep (Method A, fluorometry); format: biochemical; settings: control
T1 sequence (O15296 1-676): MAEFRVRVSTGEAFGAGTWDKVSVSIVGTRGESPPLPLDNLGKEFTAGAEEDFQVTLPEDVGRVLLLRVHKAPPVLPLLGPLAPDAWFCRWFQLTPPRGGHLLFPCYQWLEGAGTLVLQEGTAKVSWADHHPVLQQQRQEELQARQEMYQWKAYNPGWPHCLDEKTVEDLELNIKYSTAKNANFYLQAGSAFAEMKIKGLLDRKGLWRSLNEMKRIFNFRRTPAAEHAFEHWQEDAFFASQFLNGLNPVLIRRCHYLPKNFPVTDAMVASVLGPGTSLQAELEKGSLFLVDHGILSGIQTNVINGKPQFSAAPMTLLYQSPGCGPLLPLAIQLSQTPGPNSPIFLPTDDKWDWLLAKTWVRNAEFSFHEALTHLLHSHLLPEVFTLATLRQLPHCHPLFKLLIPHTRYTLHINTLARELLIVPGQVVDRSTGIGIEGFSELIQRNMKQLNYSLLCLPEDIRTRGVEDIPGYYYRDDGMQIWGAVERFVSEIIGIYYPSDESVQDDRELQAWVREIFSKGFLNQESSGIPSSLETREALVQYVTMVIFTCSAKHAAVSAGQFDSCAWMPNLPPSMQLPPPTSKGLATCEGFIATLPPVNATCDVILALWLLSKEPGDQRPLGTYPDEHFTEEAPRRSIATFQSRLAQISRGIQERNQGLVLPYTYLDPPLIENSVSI

5-LO = molecular target: T2, 5-LO (Homo sapiens, UniProt P09917); experiment: 5-LO inhibition assay, Cerep (Method A, indirect fluorogenic readout, Rhodamine 123); format: biochemical; settings: 5-LO
T2 sequence (P09917 1-674): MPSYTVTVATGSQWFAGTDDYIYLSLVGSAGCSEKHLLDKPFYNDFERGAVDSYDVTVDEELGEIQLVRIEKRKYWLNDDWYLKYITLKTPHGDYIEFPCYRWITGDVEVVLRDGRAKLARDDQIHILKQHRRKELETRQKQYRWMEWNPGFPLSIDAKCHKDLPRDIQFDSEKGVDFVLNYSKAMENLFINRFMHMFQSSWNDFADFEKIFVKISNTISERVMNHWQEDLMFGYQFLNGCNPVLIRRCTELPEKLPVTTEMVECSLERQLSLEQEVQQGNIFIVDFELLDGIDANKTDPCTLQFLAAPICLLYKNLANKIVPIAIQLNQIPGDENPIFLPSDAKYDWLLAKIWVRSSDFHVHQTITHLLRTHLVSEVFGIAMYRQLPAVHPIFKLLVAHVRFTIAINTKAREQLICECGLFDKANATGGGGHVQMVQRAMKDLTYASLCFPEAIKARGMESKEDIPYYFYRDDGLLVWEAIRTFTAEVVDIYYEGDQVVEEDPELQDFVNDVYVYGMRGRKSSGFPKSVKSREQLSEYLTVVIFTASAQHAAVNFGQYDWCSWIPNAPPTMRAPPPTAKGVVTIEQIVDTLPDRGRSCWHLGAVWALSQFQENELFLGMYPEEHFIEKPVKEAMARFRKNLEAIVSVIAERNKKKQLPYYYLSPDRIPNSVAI

EP3 [1] = molecular target: T3, EP3 (Homo sapiens, UniProt P43115); experiment: EP3 functional antagonist assay, Cerep (sulprostone 0.1 nM, impedance); settings: EP3 concentration–inhibition curve; n = 2
T3 sequence (P43115 1-390): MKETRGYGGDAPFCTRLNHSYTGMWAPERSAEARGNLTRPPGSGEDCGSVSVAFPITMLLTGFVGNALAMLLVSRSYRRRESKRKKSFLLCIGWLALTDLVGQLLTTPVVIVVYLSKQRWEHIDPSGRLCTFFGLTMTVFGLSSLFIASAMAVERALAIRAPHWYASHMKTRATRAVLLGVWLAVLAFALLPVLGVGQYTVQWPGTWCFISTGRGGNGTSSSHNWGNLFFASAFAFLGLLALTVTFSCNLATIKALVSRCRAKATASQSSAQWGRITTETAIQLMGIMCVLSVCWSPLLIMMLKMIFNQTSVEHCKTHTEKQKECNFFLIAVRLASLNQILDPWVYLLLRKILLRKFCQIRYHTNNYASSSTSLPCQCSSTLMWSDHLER

PDE5 = PDE5 (Homo sapiens, UniProt O76074); experiment: Phosphodiesterase 5 inhibition assay, Cerep (scintillation counting); format: biochemical; settings: PDE5; control
EP3 [2] = molecular target: T3, EP3; experiment: EP3 functional agonist assay, Cerep (impedance)
TRPV1 = TRPV1 (Homo sapiens, UniProt Q8NER1); experiment: TRPV1 functional agonist assay, Cerep (intracellular Ca2+); format: cell-based
Chain of TRPV1 (Q8NER1 whole entry): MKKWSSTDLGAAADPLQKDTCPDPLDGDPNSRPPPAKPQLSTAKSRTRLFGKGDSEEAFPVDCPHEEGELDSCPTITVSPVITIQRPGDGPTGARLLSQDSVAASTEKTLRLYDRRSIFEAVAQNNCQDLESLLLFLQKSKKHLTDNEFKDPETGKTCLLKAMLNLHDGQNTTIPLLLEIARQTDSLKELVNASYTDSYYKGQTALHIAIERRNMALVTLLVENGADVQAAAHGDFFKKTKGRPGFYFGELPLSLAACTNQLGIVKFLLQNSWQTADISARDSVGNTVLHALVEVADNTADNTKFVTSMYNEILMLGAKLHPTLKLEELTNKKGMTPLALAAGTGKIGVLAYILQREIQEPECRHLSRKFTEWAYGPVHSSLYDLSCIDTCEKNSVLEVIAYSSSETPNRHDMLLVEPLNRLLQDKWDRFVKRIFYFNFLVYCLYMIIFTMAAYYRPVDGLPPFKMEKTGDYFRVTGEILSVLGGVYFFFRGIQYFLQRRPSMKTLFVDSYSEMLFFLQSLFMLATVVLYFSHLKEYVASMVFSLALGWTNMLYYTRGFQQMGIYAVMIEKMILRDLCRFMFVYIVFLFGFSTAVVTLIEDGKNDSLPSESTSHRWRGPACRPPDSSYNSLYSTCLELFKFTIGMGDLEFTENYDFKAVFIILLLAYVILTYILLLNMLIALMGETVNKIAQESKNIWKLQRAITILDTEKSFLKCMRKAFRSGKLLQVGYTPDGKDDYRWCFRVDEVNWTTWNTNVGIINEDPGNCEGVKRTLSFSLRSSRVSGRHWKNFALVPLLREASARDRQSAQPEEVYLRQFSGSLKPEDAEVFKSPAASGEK

[3] = Dynamic light scattering (colloidal aggregation); format: physicochemical; settings: 25 °C
EP4 = EP4 (Homo sapiens, UniProt P35408); experiment: EP4 functional agonist assay, Cerep (cAMP, HTRF)
Chain of EP4 (P35408 whole entry): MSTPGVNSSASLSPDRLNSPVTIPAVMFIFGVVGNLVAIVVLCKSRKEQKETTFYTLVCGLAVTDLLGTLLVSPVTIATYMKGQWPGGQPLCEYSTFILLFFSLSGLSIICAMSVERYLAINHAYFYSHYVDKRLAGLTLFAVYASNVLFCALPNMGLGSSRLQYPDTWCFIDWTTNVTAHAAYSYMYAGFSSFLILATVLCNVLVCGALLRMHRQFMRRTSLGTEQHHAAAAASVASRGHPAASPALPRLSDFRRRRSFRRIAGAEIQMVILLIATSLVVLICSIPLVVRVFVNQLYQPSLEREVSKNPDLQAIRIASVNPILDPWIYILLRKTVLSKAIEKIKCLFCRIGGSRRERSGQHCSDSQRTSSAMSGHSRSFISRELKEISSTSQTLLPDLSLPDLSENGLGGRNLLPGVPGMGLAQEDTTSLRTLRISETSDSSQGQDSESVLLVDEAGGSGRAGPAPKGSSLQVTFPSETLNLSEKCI

TRPM8 = molecular target: T4, TRPM8 (Homo sapiens, UniProt Q7Z2W7); experiment: TRPM8 functional agonist assay, Cerep (intracellular Ca2+); format: cell-based
T4 construct: Cerep, SA (fee-for-service assay) printed G018533 (citation number 33 glued on)
T4 sequence (Q7Z2W7 whole entry): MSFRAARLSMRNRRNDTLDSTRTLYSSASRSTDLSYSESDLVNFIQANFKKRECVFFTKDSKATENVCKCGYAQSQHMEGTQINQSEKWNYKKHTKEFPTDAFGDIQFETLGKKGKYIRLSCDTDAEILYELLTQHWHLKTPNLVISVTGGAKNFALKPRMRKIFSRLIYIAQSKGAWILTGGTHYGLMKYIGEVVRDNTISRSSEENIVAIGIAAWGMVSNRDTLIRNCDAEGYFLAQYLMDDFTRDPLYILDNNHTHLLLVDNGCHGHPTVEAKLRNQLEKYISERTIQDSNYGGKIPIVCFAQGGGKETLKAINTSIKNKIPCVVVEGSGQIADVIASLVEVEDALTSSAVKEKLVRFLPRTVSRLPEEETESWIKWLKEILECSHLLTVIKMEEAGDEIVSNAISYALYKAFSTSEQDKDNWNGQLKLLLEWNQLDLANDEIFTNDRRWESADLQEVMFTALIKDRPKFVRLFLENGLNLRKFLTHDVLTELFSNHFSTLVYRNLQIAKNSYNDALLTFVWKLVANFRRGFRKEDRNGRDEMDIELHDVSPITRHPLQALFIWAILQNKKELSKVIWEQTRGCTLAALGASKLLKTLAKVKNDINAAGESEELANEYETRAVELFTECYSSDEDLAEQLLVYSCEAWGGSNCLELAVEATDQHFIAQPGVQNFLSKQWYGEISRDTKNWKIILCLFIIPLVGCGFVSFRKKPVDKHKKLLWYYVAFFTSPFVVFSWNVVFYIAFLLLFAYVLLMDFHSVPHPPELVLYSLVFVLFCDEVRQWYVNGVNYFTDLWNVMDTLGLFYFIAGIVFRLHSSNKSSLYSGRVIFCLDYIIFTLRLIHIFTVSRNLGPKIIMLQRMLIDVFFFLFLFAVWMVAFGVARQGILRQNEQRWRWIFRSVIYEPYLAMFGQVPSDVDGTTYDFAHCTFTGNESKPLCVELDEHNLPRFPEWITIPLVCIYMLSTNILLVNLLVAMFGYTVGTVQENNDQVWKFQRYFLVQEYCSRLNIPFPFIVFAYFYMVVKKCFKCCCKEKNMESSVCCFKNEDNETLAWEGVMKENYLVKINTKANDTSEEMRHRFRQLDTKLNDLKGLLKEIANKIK

EP1 = molecular target: T5, EP1 (Homo sapiens, UniProt P34995); experiment: EP1 functional agonist assay, Cerep (intracellular Ca2+)
T5 sequence (P34995 1-402): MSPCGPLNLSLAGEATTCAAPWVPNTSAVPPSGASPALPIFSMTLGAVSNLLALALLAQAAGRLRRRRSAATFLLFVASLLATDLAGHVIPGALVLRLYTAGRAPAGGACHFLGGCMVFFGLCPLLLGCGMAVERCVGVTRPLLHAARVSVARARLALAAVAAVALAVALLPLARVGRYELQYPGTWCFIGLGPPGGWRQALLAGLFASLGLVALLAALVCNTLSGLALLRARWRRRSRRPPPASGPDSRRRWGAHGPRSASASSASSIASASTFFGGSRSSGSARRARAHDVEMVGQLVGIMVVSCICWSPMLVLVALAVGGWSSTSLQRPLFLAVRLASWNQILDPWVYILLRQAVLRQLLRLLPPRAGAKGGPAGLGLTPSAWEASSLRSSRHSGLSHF

EP2 = EP2 (Homo sapiens, UniProt P43116); experiment: EP2 functional agonist assay, Cerep (cAMP, HTRF)
Chain of EP2 (P43116 whole entry): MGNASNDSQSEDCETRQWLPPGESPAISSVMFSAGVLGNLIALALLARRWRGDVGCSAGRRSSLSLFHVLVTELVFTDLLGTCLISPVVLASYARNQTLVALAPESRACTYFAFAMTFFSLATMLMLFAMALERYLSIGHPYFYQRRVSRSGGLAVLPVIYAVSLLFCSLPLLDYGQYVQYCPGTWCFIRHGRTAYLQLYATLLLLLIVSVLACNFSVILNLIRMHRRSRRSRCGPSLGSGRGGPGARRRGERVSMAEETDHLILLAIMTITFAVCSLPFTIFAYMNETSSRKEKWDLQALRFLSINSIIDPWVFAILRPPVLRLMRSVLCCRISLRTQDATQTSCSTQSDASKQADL

SIK = SIK (Homo sapiens, UniProt P57059); experiment: ExpresS Diversity Kinase Profile, Cerep (LANCE): SIK; format: biochemical; settings: control
Chain of SIK (P57059 whole entry): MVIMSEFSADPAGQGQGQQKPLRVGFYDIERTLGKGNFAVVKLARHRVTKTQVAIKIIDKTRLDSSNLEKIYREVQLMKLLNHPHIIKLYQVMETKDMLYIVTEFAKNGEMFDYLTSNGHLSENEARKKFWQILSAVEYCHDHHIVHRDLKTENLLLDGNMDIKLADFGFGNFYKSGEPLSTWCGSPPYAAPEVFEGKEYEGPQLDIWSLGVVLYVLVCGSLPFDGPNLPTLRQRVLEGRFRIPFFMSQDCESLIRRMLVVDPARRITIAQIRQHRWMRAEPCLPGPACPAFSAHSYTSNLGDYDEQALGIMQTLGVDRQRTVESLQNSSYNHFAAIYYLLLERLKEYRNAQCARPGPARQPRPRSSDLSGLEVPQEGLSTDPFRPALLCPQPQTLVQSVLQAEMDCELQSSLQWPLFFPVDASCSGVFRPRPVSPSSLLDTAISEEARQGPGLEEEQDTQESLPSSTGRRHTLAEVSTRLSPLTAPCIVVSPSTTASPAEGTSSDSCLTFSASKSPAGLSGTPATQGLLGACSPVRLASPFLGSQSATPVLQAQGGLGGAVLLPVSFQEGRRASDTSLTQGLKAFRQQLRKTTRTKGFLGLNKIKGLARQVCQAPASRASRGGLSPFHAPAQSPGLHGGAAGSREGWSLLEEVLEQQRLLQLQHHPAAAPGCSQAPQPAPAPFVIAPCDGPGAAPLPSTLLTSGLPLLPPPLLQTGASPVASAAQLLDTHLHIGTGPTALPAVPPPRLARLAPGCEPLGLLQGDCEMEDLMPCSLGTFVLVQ

p38α = p38α (Homo sapiens, UniProt Q16539); experiment: ExpresS Diversity Kinase Profile, Cerep (LANCE): p38α; format: biochemical; settings: control
Chain of p38α (Q16539 whole entry): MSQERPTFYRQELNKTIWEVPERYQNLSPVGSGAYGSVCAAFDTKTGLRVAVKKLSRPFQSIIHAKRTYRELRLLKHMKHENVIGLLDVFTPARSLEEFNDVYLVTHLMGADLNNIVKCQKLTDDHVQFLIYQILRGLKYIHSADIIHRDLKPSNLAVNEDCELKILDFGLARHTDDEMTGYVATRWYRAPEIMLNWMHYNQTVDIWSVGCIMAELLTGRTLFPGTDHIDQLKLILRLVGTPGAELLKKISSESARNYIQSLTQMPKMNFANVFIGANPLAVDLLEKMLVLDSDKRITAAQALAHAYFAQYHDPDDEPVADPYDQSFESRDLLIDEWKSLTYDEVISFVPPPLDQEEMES

[4] = n = 2, read-out: % inhibition of control values, Mean
[5] = read-out: % inhibition of control values, 1st measure
[6] = read-out: % inhibition of control values, 2nd measure
[7] = read-out: % of control values, 1st measurement
[8] = read-out: % of control values, 2nd measurement
[9] = read-out: % of control values, Mean

Structure (SMILES): CC1(C)OC2=C(C(=O)C(=O)c3ccccc32)C1Nc1ccc(C(=O)/C=C/c2ccccc2)cc1 (stereo not drawn) [Compound 6]
- inhibition at 5 µM (5-LO; [4]): 54.8%
- inhibition at 5 µM (5-LO; [5]): 51.5%
- inhibition at 5 µM (5-LO; [6]): 58.1%

Structure (SMILES): COc1ccc(Br)cc1S(=O)(=O)NC(=O)/C=C/c1ccccc1Cc1ccc2ccccc2c1 [Compound L798106, reference compound]
- IC50 (EP3 [1]): 370 nM

Structure (SMILES): OCCN(CCO)c1nc(N2CCCCC2)c2nc(N(CCO)CCO)nc(N3CCCCC3)c2n1 [Dipyridamole, reference compound]
- nHill (PDE5): 1.3

Structure (SMILES): CC(C)=CCC1=C(O)C(=O)c2ccccc2C1=O [Lapachol, lapachol, reference compound]
- remaining activity at 150 µM (EP3 [2]; [7]): 22.7%
- remaining activity at 150 µM (EP3 [2]; [8]): 21.7%
- remaining activity at 150 µM (EP3 [2]; [9]): 22.2%
- remaining activity at 150 µM (TRPV1; [7]): -13.1%
- remaining activity at 150 µM (TRPV1; [8]): -13.1%
- remaining activity at 150 µM (TRPV1; [9]): -13.1%
- Count rate (kcps) ([3]; 25 µM in H2O + 0.1% DMSO): 250.6 kcps
- Count rate (kcps) ([3]; 50 µM in H2O + 0.1% DMSO): 198.4 kcps
- Count rate (kcps) ([3]; 100 µM in H2O + 0.1% DMSO): 882.6 kcps
- remaining activity at 150 µM (EP4; [7]): 8%
- remaining activity at 150 µM (EP4; [8]): 5.8%
- remaining activity at 150 µM (EP4; [9]): 6.9%
- agonist response (% of control) at 150 µM (TRPM8; [7]): -20.4%
- agonist response (% of control) at 150 µM (TRPM8; [8]): -20.4%
- agonist response (% of control) at 150 µM (TRPM8; [9]): -20.4%
- remaining activity at 150 µM (EP1; [7]): -11.3%
- remaining activity at 150 µM (EP1; [8]): -11.3%
- remaining activity at 150 µM (EP1; [9]): -11.3%
- remaining activity at 150 µM (EP2; [7]): -1.2%
- remaining activity at 150 µM (EP2; [8]): -2.4%
- remaining activity at 150 µM (EP2; [9]): -1.8%
- inhibition at 150 µM (5-LO; [4]): 87.1%
- inhibition at 150 µM (5-LO; [5]): 84.9%
- inhibition at 150 µM (5-LO; [6]): 89.3%

Structure (SMILES): CC(Cc1ccc(O)c(O)c1)C(C)Cc1ccc(O)c(O)c1 (stereo not drawn) [NDGA, reference compound]
- nHill (5-LO; control): 1.5

Structure (SMILES): Cn1cc(C2=C(c3cn(CCCSC(=N)N)c4ccccc34)C(=O)NC2=O)c2ccccc21 [Ro-318220, reference compound]
- nHill (SIK): 0.7

Next, values leading:

- nHill (15-LO-2): 0.7
Structure (SMILES): N#C/C(=C\c1ccc(O)c(O)c1)C(=O)OCCc1cccs1 [Compound 2-TEDC, reference compound]

- inhibition at 5 µM (5-LO; [4]): 32.2%
- inhibition at 5 µM (5-LO; [5]): 42.2%
- inhibition at 5 µM (5-LO; [6]): 22.2%
Structure (SMILES): CC1(C)OC2=C(C(=O)C(=O)c3ccccc32)C1Nc1ccccc1 (stereo not drawn) [Compound 2]

- inhibition at 5 µM (5-LO; [4]): 31.1%
- inhibition at 5 µM (5-LO; [5]): 33.1%
- inhibition at 5 µM (5-LO; [6]): 29%
Structure (SMILES): CC1(C)OC2=C(C(=O)C(=O)c3ccccc32)C1Nc1ccc(Cl)cc1 (stereo not drawn) [Compound 3]

- inhibition at 5 µM (5-LO; [4]): 72.8%
- inhibition at 5 µM (5-LO; [5]): 77.4%
- inhibition at 5 µM (5-LO; [6]): 68.2%
Structure (SMILES): CC1(C)OC2=C(C(=O)C(=O)c3ccccc32)C1O (stereo not drawn) [Compound 4]

- inhibition at 5 µM (5-LO; [4]): 41.1%
- inhibition at 5 µM (5-LO; [5]): 47.2%
- inhibition at 5 µM (5-LO; [6]): 35.5%
Structure (SMILES): CC1(C)OC2=C(CC1O)C(=O)C(=O)c1ccccc12 (stereo not drawn) [Compound 5]

- inhibition at 5 µM (5-LO; [4]): 75.4%
- inhibition at 5 µM (5-LO; [5]): 73.8%
- inhibition at 5 µM (5-LO; [6]): 76.9%
Structure (SMILES): CC(=O)OCC1OC(OCc2cn(CC3C4=C(OC3(C)C)c3ccccc3C(=O)C4=O)nn2)C(OC(C)=O)C(OC(C)=O)C1OC(C)=O (stereo not drawn) [Compound 7]

- inhibition at 5 µM (5-LO; [4]): 66.6%
- inhibition at 5 µM (5-LO; [5]): 68.4%
- inhibition at 5 µM (5-LO; [6]): 64.8%
Structure (SMILES): CC(=O)OCC1OC(OCc2cn(C3C4=C(OC3(C)C)c3ccccc3C(=O)C4=O)nn2)C(OC(C)=O)C(OC(C)=O)C1OC(C)=O (stereo not drawn) [Compound 8]

- nHill (p38α): 1.3
Structure (SMILES): Oc1ccc(-c2nc(-c3ccncc3)c(-c3ccc(F)cc3)[nH]2)cc1 [SB202190, reference compound]
